{"source": "patent US8889126B2", "about": "“Methods and compositions for treating neuropathies” (Washington University, priority 2004, dated 2014)", "key": {"DRG explant neurons": {"system": "DRG explant neurons", "assay": "in vitro Wallerian degeneration assay: DRG explant cultures, axonal transection by removal of neuronal cell bodies", "format": "cell-based, mouse", "conditions": "lentivirus-infected DRG neurons", "method": "To identify the mechanism of delayed axonal degeneration mediated by the Wld^s protein, we employed an in-vitro Wallerian degeneration model. Primary DRG explant neurons were infected with lentivirus expressing the appropriate proteins, and axons were injured by either removal of the neuronal cell body (transection) or growth in vincristine (toxic).\nMouse DRG explants from E12.5 embryos were cultured in the presence of 1 nM nerve growth factor. Non-neuronal cells were removed from the cultures by adding 5-fluorouracil to the culture medium. Transection of neurites was performed at 10-20 DIV using an 18-gauge needle to remove the neuronal cell bodies. Incubation with β-nicotinamide adenine dinucleotide (Sigma) or Sirtinol (Calbiochem) was performed using conditions indicated in the text or figures.\nLentiviral expression vectors were generated using HEK293T cells as described above. For confirmation of lentivirus-derived protein expression, HEK293T cells were infected with lentivirus and cells were lysed 3 days after infection. These lysates were analyzed by immunoblot to using anti-His tag monoclonal antibody (Qiagen) to detect expression of the respective hexahistidine-tagged proteins. Lentiviral infection of DRG neurons was performed by incubating ˜10^6-10^7 pfu/ml virus with the DRG explant for 24 h beginning 3-7 days prior to axonal transection. The infected neurons were examined under an inverted fluorescent microscope to insure detectable lentivirus-mediated transgene expression in >95% of neurons.\nQuantitative analysis of axonal degeneration was performed as previously described (Zhai, et al., Neuron 39:217-25, 2003). Briefly, the cultures were examined using phase contrast microscopy at the indicated times. Axons with a fragmented, non-refractile appearance were designated as “degenerated.” At each time point, at least 200 singly distinguishable axons were blindly scored from several randomly taken images of each culture. Each condition was tested in triplicate explants in each experiment. Results were obtained from 2-4 independent experiments for each condition. Statistical analysis was performed by Student's T test. For calculations of neurite-covered area, digitally captured images from quadruplicate samples of two independent experiments were analyzed using analysis 3.1 software (Soft Imaging System, Lakewood, Colo.).\nCell culture, in vitro axotomy, and quantification of axonal degeneration. Mouse DRG explants from E12.5 embryos were cultured in the DMEM containing 10% FCS and 1 nM nerve growth factor. Non-neuronal cells were removed from the cultures by adding 5-fluorouracil to the culture media. Transection of neurites was performed at 14-21 DIV using an 18-gauge needle to remove the neuronal cell bodies. Lentiviral expression vectors were generated. Lentiviral infection was performed 3-7 days prior to axonal transection for 24 hr. Quantitative analysis of neurite degeneration was performed."}, "[1]": {"system": "NAD generated after 1 hour at 37 deg", "assay": "relative NMNAT enzymatic activity of affinity purified 6xHis-tagged proteins from HEK293T cells", "format": "biochemical", "conditions": "affinity purified protein, normalized to protein concentration", "method": "NMNAT protein overexpression, affinity purification and enzymatic assay. HEK293T cells were transfected with an expression plasmid for each enzyme by using calcium phosphate precipitation. Three days later, cells were washed with PBS twice and then suspended in the buffer containing 50 mM Sodium Phosphate (pH8.0), and 300 mM NaCl (buffer A). Cells were then homogenized by SONIFIRE 450 (BRANSON) and supernatant was collected by centrifugation at 10,000 g for 10 min. […] Relative NMNAT enzymatic activity was measured by using affinity purified proteins as described before and subtracted the value obtained from mock transfected cells and normalized by the amount of recombinant protein determined by densitometry.\nNext we confirmed enzymatic activity of cytNMNAT1, NMNAT1 and its mutant cytNMNAT1 were purified from the cell lysate expressing either of proteins by using affinity gel. […] We expressed hexa-histidine tagged NMNAT3 or nucNMNAT3 in HEK293T cells and analyzed subcellular localization and its enzymatic activity. […] In these investigations, the amount of NAD generated after 1 hour at 37 deg was converted NADH, quantified and normalized to protein concentration. […] FIG. 7E presents a quantitative analysis of remaining neurite numbers at 12, 24, 48, and 72 hours after axotomy. […]"}}, "data": [{"substance": "NMNAT3: murine nicotinamide mononucleotide adenylyltransferase3", "values": [{"measurement": "axonal degeneration after transection in neurons expressing the construct", "setting": "DRG explant neurons", "value": "same extent of delay in neurite degeneration as well as NMNAT1"}, {"measurement": "enzymatic activity (relative NMNAT activity)", "setting": "[1]", "value": "comparable enzymatic activity compared with NMNAT1"}]}]}
